We go through 28 compounds from patent US11147295B2, “Sweetener and flavor compositions, methods of making and methods of use thereof” (EPC Natural Products Co., Ltd., priority 2018, dated 2021).

Assay [1] in a line: Sensory evaluation of the samples prepared in Example 50 (Example 52). It is filed as in vivo, human. Further details: key to Intensity of Smell: “+” for slight; “++” for moderate; “+++” for very strong.
Description: The reaction partner (amino acid, carbohydrate source) were dissolved/suspended in the reaction solvent and transferred into a glass beaker filled with sand pre-heated for at least 30 minutes at the reaction temperature in a drying oven. After the planned reaction time, the vials were transferred into ice water. After cooling to room temperature, sensory analysis and analytical characterization was performed.
For evaluation of the taste profile, the samples were tested by a panel of four people. 1 trained taster tasted independently the samples first. The taster was asked to describe the taste profile and score 0-5 according to the increasing sugar likeness, bitterness, aftertaste and lingering taste profiles. The first taster was allowed to re-taste, and then make notes for the sensory attributes perceived. Afterwards, another 3 tasters tasted and the attributes were noted and discussed openly to find a suitable description. In case that more than 1 taster disagreed with the results, the tasting was repeated. In some sensory test results (above), the taste rating was expressed by “+”, which means the intensity of the factors is shown by three levels. “+” for slight, “++” for moderate and “+++” for very strong.
The nature of assay [2]: Sensory analysis of Maillard reaction samples: odor/smell, color, taste (Examples 55-62). It is filed as in vivo, human. The conditions noted are these: Example 56, negative controls (no carbohydrate source); 10 ml glycerin/water=9:1, 100° C., 40 minutes. The protocol:
All reactions were performed in 10 ml glycerin/water=9:1. The reaction partners were dissolved in water and then warmed glycerin (60° C.) was added. The reactions were performed at 100° C. for 40 minutes in a drying oven (sealed vials were positioned in pre-heated sand to increase heat transfer).
All samples were assessed at 22° C. after the Maillard reaction was stopped by placing the sealed vials in an ice bath. After 20 minutes in the ice bath the sealed vials were put in a water bath set to 22° C.
The odor/smell was assessed independently by 3 persons; the final description was agreed after discussion. […] The taste was assessed independently by 3 persons either in the original samples or after appropriate dilution to achieve relevant concentrations of sugars and steviol-glycosides (i.e. 5-9% SE); the final description was agreed after discussion.

Experiment in assay [3]: as above
Format: in vivo, human.

Assay [4] in a line: DPPH radical-scavenging activity (Example 65). It is filed as physicochemical. The conditions noted are these: iron-III reduction and DPPH radical scavenging, samples kept at 100° C. 0, 2.5 or 5.0 hours. The protocol: 1 mg 1,1-Diphenyl-2-picrylhydrazyl radical (DPPH)/ml ethanol, dilution to assay concentration were prepared in ethanol (40 μg/mL); Calibration samples were prepared with Ascorbic acid in a concentration of 0-10 μg/mL; as a negative control sample, water was used.
Samples in aqueous solution were used as such or diluted with water.
A 0.1 ml sample (or calibration standard) was mixed with 3.9 ml solution of DPPH (100 μMolar) and reacted while protected from light at room temperature for 30 min. Absorbance was determined at 517 nm against ethanol.
10 mM of amino acid and/or 10 mM sugar were dissolved in 10 ml 0.1 mM KH2PO4-buffer, pH=7.8.
The samples were kept at 100° C. in sealed glass vials (Pyrex 15 ml with screw caps) for 0 (before reaction), 2.5 or 5.0 hours. Thereafter the samples were transferred to an ice water bath and cooled down to room temperature. These samples were diluted 1:10 and used for the test assay for anti-oxidant potential.
For orientation: DPPH is a stable violet radical that fades when it is reduced.

For assay [5] the following is noted: the sweeteness depends on the tested concentration compared with sucrose; cited from earlier work.
Setting [6] is: Table 52.2, 1 ml water + 9 ml Glycerin, 0.67 h, 100° C. (Table 50.2).
Setting [7] is: Table 52.5, 1 ml water + 9 ml Glycerin, 2.0 h, 120° C. (Table 50.5).
Setting [8] is: Table 52.3, 1 ml water + 9 ml Glycerin, 0.67 h, 100° C. (Table 50.3).
The mark [9] stands for this setting: Table 52.6, Glycerin, 10 ml, 100° C., 40 min (Table 50.6).
The mark [10] stands for this setting: Table 52.7, Glycerin, 10 ml, 1 h, 120° C. (Table 50.7).
Where [11] appears, read: Example 57, before reaction, 10 ml KH2PO4, pH 7.8.
Where [12] appears, read: Table 52.1, 1 ml water + 9 ml Glycerin, 1 h, 100° C. (Table 50.1).
Where [13] appears, read: Example 57, after reaction, 10 ml KH2PO4, pH 7.8, 2.5 h, 120° C.

With `C[C@H](N)C(=O)O` [0.1 mMol Ala], in assay [1] (setting [6]), the Smell entry is on record as “Agar” and the Taste result was “sweet”.
For the compound `O=C[C@H](O)[C@H]1OC(=O)[C@@H](O)[C@H]1O` [0.1 mMol GlucLac], in assay [1] (setting [7]), the “Intensity of Smell” value is listed as “+++”, the Smell entry was “Burnt sugar” and the Taste entry is on record as “Bitter”.
In the case of `NCCCC[C@H](N)C(=O)O` [0.1 mMol Lys], in assay [1] (setting [8]), the Smell result is “Popcorn” and the Taste result is given as “Sweet”.
With `N[C@@H](Cc1ccccc1)C(=O)O` [0.1 mMol Phe], the Taste result in assay [1] (setting [6]) is recorded as “sweet”. In assay [1] (setting [7]), the “Intensity of Smell” value is reported as “+”; the Smell result is reported as “Caramel, burnt”; the Taste result is reported as “sweet”.
Consider `C=C1C[C@@]23CC[C@H]4[C@@](C)(CCC[C@@]4(C)C(=O)O[C@@H]4O[C@H](CO)[C@@H](O)[C@H](O)[C@H]4O)[C@@H]2CC[C@]1(O[C@@H]1O[C@H](CO)[C@@H](O)[C@H](O[C@@H]2O[C@H](CO)[C@@H](O)[C@H](O)[C@H]2O)[C@H]1O[C@@H]1O[C@H](CO)[C@@H](O)[C@H](O)[C@H]1O)C3` [0.05 mMol Reb-A], for which, in assay [1] (setting [6]), the Smell result is listed as “neutral/unpleasant” and the Taste entry is reported as “sweet”.
`N[C@@H](Cc1ccccc1)C(=O)O` [3.3 mMol Phe]: the Smell entry in assay [1] (Table 52.6, Glycerin, 10 ml, 100° C., 5 min (Table 50.6)) is on record as “Slightly bloomy”; in assay [1] (Table 52.6, Glycerin, 10 ml, 100° C., 10 min (Table 50.6)), “flowery/bloomy”; in assay [1] (Table 52.6, Glycerin, 10 ml, 100° C., 20 min (Table 50.6)), “flowery/bloomy”; in assay [1] (setting [9]), “flowery/bloomy”; in assay [1] (setting [10]) it was “flowery/bloomy”.
Turning to `C[C@H](N)C(=O)O` [8.91 mg Ala], in assay [2], the Smell result is “Neutral, slightly Agar” and the Taste entry is “Slightly sweet”.
For the compound `OC[C@H]1OC(O)[C@H](O)[C@@H](O)[C@@H]1O` (stereo partly shown) [9 mg Glucose], in assay [3] (setting [11]), the Smell entry is “neutral” and the Taste entry is reported as “Sweet”.
Regarding `OC[C@H]1OC(O)[C@H](O)[C@@H](O)[C@@H]1O` (stereo partly shown) [10 mMol Glu], the Smell result in assay [1] (setting [9]) and in assay [1] (setting [10]) was “Slightly Caramel” throughout.
As to `N[C@@H](CO)C(=O)O` [10.5 mg Ser], in assay [2], the Smell entry is given as “Lotus flower” and the Taste result is recorded as “Slightly sweet”.
Regarding `O=C(O)[C@@H]1CCCN1` [11.5 mg Pro], the Taste entry in assay [2] is given as “Slightly sweet”.
With `C[C@@H](O)[C@H](N)C(=O)O` [11.91 mg Thr], in assay [2], the Smell entry is listed as “Vanilla, butter” and the Taste entry is listed as “Slightly sweet”.
For `N[C@@H](CS)C(=O)O` [12.1 mg Cys], in assay [2], the Smell result was “Unpleasant (sulfur)” and the Taste entry was “Slightly sweet”.
Take `CC[C@H](C)[C@H](N)C(=O)O` [13.11 mg Ile]: in assay [2], the Smell entry is given as “Coffee” and the Taste result is on record as “Slightly sweet”.
For `NCCCC[C@H](N)C(=O)O` [14.7 mg Lys] the same measures were “Popcorn” and “Slightly sweet”.
On to `CSCC[C@H](N)C(=O)O` [14.9 mg Met], for which, in assay [2], the Smell result is on record as “Sulfuric” and the Taste entry is given as “Slightly sweet”.
Regarding `N[C@@H](Cc1ccccc1)C(=O)O` [16.5 mg Phe], the Smell result in assay [2] was “Bloomy, caramel”; in assay [3] (setting [11]), “neutral”; in assay [3] (Example 58, before reaction, 10 ml KH2PO4, pH 7.8), “Neutral”. The Taste result in assay [2] is reported as “Slightly sweet”; in assay [3] (setting [11]), “No taste”; in assay [3] (Example 58, before reaction, after dilution 1:20), “No taste”.
On to `N[C@@H](Cc1ccc(O)cc1)C(=O)O` [18.1 mg Tyr], for which, in assay [2], the Smell result was “neutral” and the Taste entry is given as “Slightly sweet”.
In the case of `N[C@@H](Cc1c[nH]c2ccccc12)C(=O)O` [20.42 mg Try], in assay [2], the Smell result is on record as “Unpleasant (fecal)” and the Taste result is “Slightly sweet”.
With `N[C@@H](CCC(=O)O)C(=O)O` [167 mMol Glu], in assay [1] (setting [12]), the Smell entry was “caramel” and the Taste result is on record as “Sweet”.
`O=C[C@H](O)[C@@H](O)[C@H](O)[C@H](O)C(=O)O` [Glucuronic Acid]: in assay [3] (setting [13]), the Smell entry is “burnt bread” and the Taste result is recorded as “Bitter”.
Turning to `O=C1O[C@@H]2[C@@H](O)[C@H](O)O[C@@H]2C1O` (stereo partly shown) [Glucuronolactone], in assay [3] (setting [13]), the Smell entry is “Burnt sugar” and the Taste result is recorded as “Bitter”.
For the compound `N[C@@H](Cc1ccccc1)C(=O)O` [Phe 60 mMol], in assay [1] (setting [12]), the Smell result is reported as “flowery/bloomy-caramel” and the Taste result was “Sweet”.
For `N[C@H](Cc1ccccc1)C(=O)O` [Phe], in assay [3] (setting [13]), the Smell entry is “Caramel, burnt” and the Taste result is “sweet”.
On to `C=C1C[C@@]23CC[C@H]4[C@@](C)(CCC[C@@]4(C)C(=O)O[C@@H]4O[C@H](CO)[C@@H](O)[C@H](O)[C@H]4O)[C@@H]2CC[C@]1(O[C@@H]1O[C@H](CO)[C@@H](O)[C@H](O[C@@H]2O[C@H](CO)[C@@H](O)[C@H](O)[C@H]2O)[C@H]1O[C@@H]1O[C@H](CO)[C@@H](O)[C@H](O)[C@H]1O)C3` [Reb-A, Rebaudioside A], for which the anti-oxidant properties entry in assay [4] was “substantial anti-oxidant properties”.
Turning to `O=S(=O)([O-])NC1CCCCC1.[Na+]` [sodium cyclamate], the “times sweeter than sucrose” value in assay [5] is “about 30 times”.
On to `OC[C@H]1O[C@H](O[C@]2(CCl)O[C@H](CCl)[C@@H](O)[C@@H]2O)[C@H](O)[C@@H](O)[C@H]1Cl` [sucralose], for which the “times sweeter than sucrose” value in assay [5] is listed as “about 600 times”.
Consider Thaumatin, for which the “times sweeter than sucrose” value in assay [5] is “about 2000 times”.
